Results reported in the NIST ThermoML archive (doi:10.1016/j.jct.2016.07.047).

Test: mn = molality of the nth substance listed, in mol/kg
Conditions: Liquid; for viscosity: Falling or rolling sphere viscometry; for electrical conductivity: Frequency=0.0003 MHz, Alternating current cell with electrodes; for mass density: Vibrating tube method

NCC(=O)O [2-aminoacetic acid] + O
87 kPa
Conditions	electrical conductivity, m1 = 0.1 [S/m]	electrical conductivity, m1 = 0.3 [S/m]	electrical conductivity, m1 = 0.5 [S/m]	mass density, m1 = 0.1 [kg/m3]	mass density, m1 = 0.3 [kg/m3]	mass density, m1 = 0.5 [kg/m3]	viscosity, m1 = 0.1 [mPa·s]	viscosity, m1 = 0.3 [mPa·s]	viscosity, m1 = 0.5 [mPa·s]
288.15 K	0.000925	0.00227	0.00355	1002.42	1008.66	1014.9	1.144	1.176	1.208
298.15 K	0.000963	0.00239	0.00381	1000.23	1006.29	1012.35	0.924	0.95	0.984
308.15 K	0.00101	0.00253	0.0041	–	1003.23	1009.25	0.729	0.749	0.77
318.15 K	0.00106	0.00269	0.00445	993.28	999.24	1005.2	0.613	0.638	0.662

C[C@H](N)C(=O)O [(S)-2-aminopropanoic acid] + O
Conditions	electrical conductivity, m1 = 0.1 [S/m]	electrical conductivity, m1 = 0.3 [S/m]	electrical conductivity, m1 = 0.5 [S/m]	mass density, m1 = 0.1 [kg/m3]	mass density, m1 = 0.3 [kg/m3]	mass density, m1 = 0.5 [kg/m3]	viscosity, m1 = 0.1 [mPa·s]	viscosity, m1 = 0.3 [mPa·s]	viscosity, m1 = 0.5 [mPa·s]
288.15 K, 87 kPa	0.000237	0.000567	0.000861	–	–	–	–	–	–
288.15 K, 100 kPa	–	–	–	1002.1	1007.7	1013.3	1.16	1.223	1.286
298.15 K, 87 kPa	0.000293	0.000659	0.000968	–	–	–	–	–	–
298.15 K, 100 kPa	–	–	–	999.97	1005.51	1011.05	0.91	0.955	1.001
308.15 K, 87 kPa	0.000357	0.000783	0.00117	–	–	–	–	–	–
308.15 K, 100 kPa	–	–	–	996.94	1002.42	1007.9	0.738	0.774	0.809
318.15 K, 87 kPa	0.000441	0.000946	0.00141	–	–	–	–	–	–
318.15 K, 100 kPa	–	–	–	993.09	998.47	1003.85	0.613	0.649	0.685
